Measurements from US8158809B2 (priority 2003, dated 2012).

Test system: HCT116
Assay: Cell colony formation assay
Assay type: cell-based
Settings: 72 hours with drug, colonies counted after 7 days
Experimental: This example provides directions for growing cells and testing compounds of the invention for their effect on the growth of the cells. All cells were purchased from DCTDC Tumor Repository, NCI, NIH.
The cells were incubated in a CO2 incubator at 37° C. for 5 hours for attachment to the bottom of Petri dishes. Drugs were made fresh in medium at ten times the final concentration, and then 0.3 ml of this stock solution was added to the 2.7 ml of medium in the dish. The cells were then incubated with drugs for 72 hours at 37° C. At the end of the incubation the drug-containing media were decanted, the dishes were rinsed with 4 ml of Hank's Balance Salt Solution (HBSS), 5 ml of fresh medium was added, and the dishes were returned to the incubator for colony formation. The cell colonies were counted using colony counter after incubation for 7 days for HCT116 cells and PC-3 cells and 8 days for VM46 cells, respectively. Cell survival (%) was calculated, as shown in Table I below for HCT 116 cells.

COc1cc(C2c3cc4c(cc3C(OC(=O)c3ccc5c(c3)C(=O)c3ccccc3C5=O)C3COC(=O)C23)OCO4)cc(OC)c1OC (stereo not drawn) [Compound 000121, Podophyllotoxin-4-O-ester of anthraquinone-2-carboxylic acid]
In Vitro Efficacy: Survival (%) of HCT116 (100 nM): 94.03%
In Vitro Efficacy: Survival (%) of HCT116 (1000 nM): 0%

COc1cc([C@@H]2c3cc4c(cc3[C@H](OC(=O)c3cccc(NC(=O)CCl)c3)[C@H]3COC(=O)[C@H]23)OCO4)cc(OC)c1OC [Compound 000124, Podophyllotoxin-4-O-ester of 3-chloroacetamidobenzoic acid]
In Vitro Efficacy: Survival (%) of HCT116 (10 nM): 83.22%
In Vitro Efficacy: Survival (%) of HCT116 (100 nM): 0%
In Vitro Efficacy: Survival (%) of HCT116 (1000 nM): 0%

COc1cc(C2c3cc4c(cc3C(OC(=O)c3cc(-c5ccccc5)nc5ccccc35)C3COC(=O)C23)OCO4)cc(OC)c1OC (stereo not drawn) [Compound 000125, Podophyllotoxin-4-O-ester of 2-phenyl-4-quinolinecarboxylic acid]
In Vitro Efficacy: Survival (%) of HCT116 (100 nM): 90.34%
In Vitro Efficacy: Survival (%) of HCT116 (1000 nM): 0%

COc1cc(C2c3cc4c(cc3C(OC(=O)CCC(=O)O)C3COC(=O)C23)OCO4)cc(OC)c1OC (stereo not drawn) [Compound 000201, Podophyllotoxin-4-O-ester of hemisuccinic acid]
In Vitro Efficacy: Survival (%) of HCT116 (100 nM): 93.24%
In Vitro Efficacy: Survival (%) of HCT116 (1000 nM): 0%

COc1cc(C2c3cc4c(cc3C(OC(=O)c3ccc([N+](=O)[O-])o3)C3COC(=O)C23)OCO4)cc(OC)c1OC (stereo not drawn) [Compound 000202, Podophyllotoxin-4-O-ester of 5-nitro-2-furoic acid]
In Vitro Efficacy: Survival (%) of HCT116 (10 nM): 81.68%
In Vitro Efficacy: Survival (%) of HCT116 (100 nM): 0%
In Vitro Efficacy: Survival (%) of HCT116 (1000 nM): 0%

COc1cc([C@@H]2c3cc4c(cc3[C@H](OC(=O)[C@@H]3CCCN3C(=O)OC(C)(C)C)[C@H]3COC(=O)[C@H]23)OCO4)cc(OC)c1OC [Compound 000203, Podophyllotoxin-4-O-ester of N-(tert-Butoxycarbonyl)-L-proline]
In Vitro Efficacy: Survival (%) of HCT116 (100 nM): 89.76%
In Vitro Efficacy: Survival (%) of HCT116 (1000 nM): 0%

COc1cc([C@@H]2c3cc4c(cc3[C@H](OC(=O)c3cc(=O)c5ccccc5o3)[C@H]3COC(=O)[C@H]23)OCO4)cc(OC)c1OC [Compound 000215, Podophyllotoxin-4-O-ester of chromone-2-carboxylic acid]
In Vitro Efficacy: Survival (%) of HCT116 (10 nM): 92.46%
In Vitro Efficacy: Survival (%) of HCT116 (100 nM): 0%
In Vitro Efficacy: Survival (%) of HCT116 (1000 nM): 0%

COc1cc(C2c3cc4c(cc3C(OC(=O)COC3CC(C)CCC3C(C)C)C3COC(=O)C23)OCO4)cc(OC)c1OC (stereo not drawn) [Compound 000218, Podophyllotoxin-4-O-ester of (+)-menthoxyethanoic acid]
In Vitro Efficacy: Survival (%) of HCT116 (100 nM): 44.28%
In Vitro Efficacy: Survival (%) of HCT116 (1000 nM): 0%

COc1cc([C@@H]2c3cc4c(cc3[C@H](OC(=O)C(C)ON=C3c5cc([N+](=O)[O-])cc([N+](=O)[O-])c5-c5c3cc([N+](=O)[O-])cc5[N+](=O)[O-])[C@H]3COC(=O)[C@H]23)OCO4)cc(OC)c1OC (stereo partly drawn) [Compound 000222, Podophyllotoxin-4-O-ester of (+)-2-(2,4,5,7-tetranitro-9-fluorenylideaminooxy)-propionic acid]
In Vitro Efficacy: Survival (%) of HCT116 (10 nM): 100%
In Vitro Efficacy: Survival (%) of HCT116 (100 nM): 1.46%
In Vitro Efficacy: Survival (%) of HCT116 (1000 nM): 0%

COc1cc([C@@H]2c3cc4c(cc3[C@H](OC(=O)C3Cc5c([nH]c6ccccc56)CN3C(=O)OC(C)(C)C)[C@H]3COC(=O)[C@H]23)OCO4)cc(OC)c1OC (stereo partly drawn) [Compound 000301, Podophyllotoxin-4-O-ester of N—BOC-1,2,3,4-Tetrahydro-β-carboline-3-carboxylic acid]
In Vitro Efficacy: Survival (%) of HCT116 (100 nM): 84.08%
In Vitro Efficacy: Survival (%) of HCT116 (1000 nM): 0%

COc1cc(C2c3cc4c(cc3C(OC(=O)C3Cc5ccccc5CN3C(=O)OC(C)(C)C)C3COC(=O)C23)OCO4)cc(OC)c1OC (stereo not drawn) [Compound 000302, Podophyllotoxin-4-O-ester of N—BOC-1,2,3,4-Tetrahydroisoquinoline-3-carboxylic acid]
In Vitro Efficacy: Survival (%) of HCT116 (100 nM): 100%
In Vitro Efficacy: Survival (%) of HCT116 (1000 nM): 0%

COc1cc(C2c3cc4c(cc3C(OC(=O)C(NC(=O)OC(C)(C)C)C(C)c3ccccc3)C3COC(=O)C23)OCO4)cc(OC)c1OC [Compound 000307, Podophyllotoxin-4-O-ester of N—BOC-erythro-D-β-Methylphenylalanine]
In Vitro Efficacy: Survival (%) of HCT116 (100 nM): 93.49%
In Vitro Efficacy: Survival (%) of HCT116 (1000 nM): 0%

COc1cc([C@@H]2c3cc4c(cc3[C@H](OC(=O)COc3ccc(Cl)cc3C)[C@H]3COC(=O)[C@H]23)OCO4)cc(OC)c1OC [Compound 000317, Podophyllotoxin-4-O-ester of 4-chloro-2-methylphenoxyacetic acid]
In Vitro Efficacy: Survival (%) of HCT116 (10 nM): 99.49%
In Vitro Efficacy: Survival (%) of HCT116 (100 nM): 0%
In Vitro Efficacy: Survival (%) of HCT116 (1000 nM): 0%

COc1cc([C@@H]2c3cc4c(cc3[C@H](OC(=O)COc3ccc(Br)cc3)[C@H]3COC(=O)[C@H]23)OCO4)cc(OC)c1OC [Compound 000320, Podophyllotoxin-4-O-ester of 4-bromophenoxyacetic acid]
In Vitro Efficacy: Survival (%) of HCT116 (10 nM): 100%
In Vitro Efficacy: Survival (%) of HCT116 (100 nM): 0%
In Vitro Efficacy: Survival (%) of HCT116 (1000 nM): 0%

COc1cc(C2c3cc4c(cc3C(OC(=O)COc3ccc(C=O)cc3)C3COC(=O)C23)OCO4)cc(OC)c1OC (stereo not drawn) [Compound 000323, Podophyllotoxin-4-O-ester of 4-formylphenoxyacetic acid]
In Vitro Efficacy: Survival (%) of HCT116 (10 nM): 90.86%
In Vitro Efficacy: Survival (%) of HCT116 (100 nM): 0%
In Vitro Efficacy: Survival (%) of HCT116 (1000 nM): 0%

COc1cc([C@@H]2c3cc4c(cc3[C@H](OC(=O)COc3ccc(Cl)cc3Cl)[C@H]3COC(=O)[C@H]23)OCO4)cc(OC)c1OC [Compound 000324, Podophyllotoxin-4-O-ester of 2,4-dichlorophenoxyacetic acid]
In Vitro Efficacy: Survival (%) of HCT116 (10 nM): 100%
In Vitro Efficacy: Survival (%) of HCT116 (100 nM): 0%
In Vitro Efficacy: Survival (%) of HCT116 (1000 nM): 0%

COc1ccc(OCC(=O)OC2c3cc4c(cc3C(c3cc(OC)c(OC)c(OC)c3)C3C(=O)OCC23)OCO4)cc1 (stereo not drawn) [Compound 000329, Podophyllotoxin-4-O-ester of 4-methoxyphenoxyacetic acid]
In Vitro Efficacy: Survival (%) of HCT116 (10 nM): 100%
In Vitro Efficacy: Survival (%) of HCT116 (100 nM): 0%
In Vitro Efficacy: Survival (%) of HCT116 (1000 nM): 0%

COc1cc([C@@H]2c3cc4c(cc3[C@H](OC(=O)c3cncc(C(=O)O[C@H]5c6cc7c(cc6[C@@H](c6cc(OC)c(OC)c(OC)c6)[C@H]6C(=O)OC[C@@H]65)OCO7)c3)[C@H]3COC(=O)[C@H]23)OCO4)cc(OC)c1OC [Compound 000330, Bis(Podophyllotoxin-4-O-ester) of 3,5-Pyridinedicarboxylic acid]
In Vitro Efficacy: Survival (%) of HCT116 (10 nM): 100%
In Vitro Efficacy: Survival (%) of HCT116 (100 nM): 0%
In Vitro Efficacy: Survival (%) of HCT116 (1000 nM): 0%

COc1cc([C@@H]2c3cc4c(cc3[C@H](OC(=O)c3cc(C(=O)O[C@H]5c6cc7c(cc6[C@@H](c6cc(OC)c(OC)c(OC)c6)[C@H]6C(=O)OC[C@@H]65)OCO7)cc([N+](=O)[O-])c3)[C@H]3COC(=O)[C@H]23)OCO4)cc(OC)c1OC [Compound 000331, Bis(Podophyllotoxin-4-O-ester) of 5-nitroisophthalic acid]
In Vitro Efficacy: Survival (%) of HCT116 (100 nM): 62.56%
In Vitro Efficacy: Survival (%) of HCT116 (1000 nM): 0%

COc1cc([C@@H]2c3cc4c(cc3[C@H](OC(=O)COc3ccc5c(C)c(Cl)c(=O)oc5c3)[C@H]3COC(=O)[C@H]23)OCO4)cc(OC)c1OC [Compound 000405, Podophyllotoxin-4-O-ester of 7-(carboxymethoxy)-3-chloro-4-methylcoumarin]
In Vitro Efficacy: Survival (%) of HCT116 (10 nM): 90.45%
In Vitro Efficacy: Survival (%) of HCT116 (100 nM): 0%
In Vitro Efficacy: Survival (%) of HCT116 (1000 nM): 0%

COc1cc(C2c3cc4c(cc3C(OC(=O)COc3ccc(I)cc3)C3COC(=O)C23)OCO4)cc(OC)c1OC (stereo not drawn) [Compound 000614, Podophyllotoxin-4-O-ester of 4-iodophenoxyacetic acid]
In Vitro Efficacy: Survival (%) of HCT116 (10 nM): 84.99%
In Vitro Efficacy: Survival (%) of HCT116 (100 nM): 0%
In Vitro Efficacy: Survival (%) of HCT116 (1000 nM): 0%

COc1cc([C@@H]2c3cc4c(cc3[C@H](OC(=O)COc3ccc(F)cc3)[C@H]3COC(=O)[C@H]23)OCO4)cc(OC)c1OC [Compound 000615, Podophyllotoxin-4-O-ester of 4-fluorophenoxyacetic acid]
In Vitro Efficacy: Survival (%) of HCT116 (10 nM): 100%
In Vitro Efficacy: Survival (%) of HCT116 (100 nM): 0%
In Vitro Efficacy: Survival (%) of HCT116 (1000 nM): 0%

COc1cc(C2c3cc4c(cc3C(OC(=O)COc3cccc(Cl)c3)C3COC(=O)C23)OCO4)cc(OC)c1OC (stereo not drawn) [Compound 000622, Podophyllotoxin-4-O-ester of 3-chlorophenoxyacetic acid]
In Vitro Efficacy: Survival (%) of HCT116 (10 nM): 98.48%
In Vitro Efficacy: Survival (%) of HCT116 (100 nM): 0%
In Vitro Efficacy: Survival (%) of HCT116 (1000 nM): 0%

CC[C@@]1(OC(=O)COc2ccc(C(=O)O[C@H]3c4cc5c(cc4[C@@H](c4cc(OC)c(OC)c(OC)c4)C4C(=O)OCC43)OCO5)cc2)C(=O)OCc2c1cc1n(c2=O)Cc2cc3ccccc3nc2-1 (stereo partly drawn) [Compound 000801, Podophyllotoxin-4-O-ester of camptothecin-20-O-ester of 4-carboxylicphenoxyacetic acid]
In Vitro Efficacy: Survival (%) of HCT116 (1 nM): 99.83%
In Vitro Efficacy: Survival (%) of HCT116 (10 nM): 0%
In Vitro Efficacy: Survival (%) of HCT116 (100 nM): 0%
In Vitro Efficacy: Survival (%) of HCT116 (1000 nM): 0%

COc1cc(C2c3cc4c(cc3C(OC(=O)CCCc3ccc(N(CCCl)CCCl)cc3)C3COC(=O)C23)OCO4)cc(OC)c1OC (stereo not drawn) [Compound 0003132, Podophyllotoxin-4-O-ester of 4-(4-dichloroethylamino) phenylbutyric acid]
In Vitro Efficacy: Survival (%) of HCT116 (100 nM): 97.65%
In Vitro Efficacy: Survival (%) of HCT116 (1000 nM): 0%
